Assay results as given in US20220249441A1, “Homodimeric Tobramycin Adjuvant Repurposes Novobiocin as an Effective Antibacterial Agent Against Gram-Negative Bacteria” (priority 2019, published 2022).

Assays:
[1] = tested on: A. baumannii ATCC 17978; assay: microbe, parasite or virus in culture; assay type: cell-based, Acinetobacter baumannii; details: after 7 days of serial passaging
Procedure: (§1) Development of Resistance Study. […] Tobramycin and colistin were included as controls. At 24-hour intervals, the cultures were assessed for growth. […] This serial passaging was repeated for 8 days.

[2] = tested on: A. baumannii ATCC 17978 and resistant mutants; assay: microbe, parasite or virus in culture; assay type: cell-based, Acinetobacter baumannii
Procedure: Antimicrobial Susceptibility Assay. The in vitro antimicrobial activity of all compounds/antibiotics against a panel of bacteria was evaluated by microbroth dilution method in accordance with the Clinical and Laboratory Standards Institute (CLSI) guidelines (using ATCC strains as quality control strains) (54). Overnight grown bacterial cultures were diluted in saline to achieve a 0.5 McFarland turbidity, followed by 1:50 dilution in Mueller-Hinton broth (MHB) for inoculation to a final concentration of approximately 5×10^5 CFU/mL. […] The lowest concentration that prevented the visible growth of bacteria was defined as the MIC for each antimicrobial agent. The broth with or without bacterial cells was used as positive or negative control, respectively.
as §1

[3] = tested on: Galleria mellonella; assay: Galleria mellonella tolerability study; assay type: in vivo; details: 100 mg/kg single dose; after 96 h (4 days)
Procedure: Galleria mellonella In vivo Larvae-Infection Model. In vivo synergistic effects were determined using Galleria mellonella infection model, as previously described (49). Briefly, larvae were purchased from The Worm Lady Live Feeder (ON, Canada), stored in their natural habitat at 16° C., and used within 10 days of delivery. The larvae (average weight of 250 mg) were used for tolerability and efficacy studies. Tolerability study was performed by injecting a 10 μL aliquot of antimicrobial agents only at concentrations equivalent to 100 mg/kg or 200 mg/kg. The larvae (ten in each group) were incubated at 37° C. and monitored for 96 h. For efficacy studies, the virulence and bacterial load required to kill 100% of the larvae within 24 h (with no treatment) was first determined, which is approximately 10 CFU. Overnight grown culture of respective MDR A. baumannii isolate was standardized to 0.5 McFarland standard and diluted in PBS to a final concentration of 10^3 CFU/mL. A 10 μL aliquot of this solution (˜10 CFU) was injected into each larva and incubated for 3 h at 37° C. […] Larvae treated with 10 μL of PBS or high concentrations of test antibiotics served as negative and positive control, respectively. The larvae were incubated at 37° C. in Petri dishes lined with filter paper and scored for survivability every 6 h for up to 36 h. […]

What does the source list for Colistin?
fold change in MIC [1]: 1024 fold; MIC ([2]; Mutant A (seven serial passages, sub-MICs novobiocin)): 8 µg/mL; MIC ([2]; Mutant B (seven serial passages, sub-MICs colistin)): 1024 µg/mL; MIC ([2]; Mutant C (seven serial passages, sub-MICs novobiocin + 7.1 μM compound 1)): 0.031 µg/mL; MIC ([2]; Wild-type A. baumannii ATCC 17978): 0.063 µg/mL; larvae killed (mortality) [3]: 90%
